Measurements as given in ChEMBL document CHEMBL4049459, “1,4,5-Trisubstituted Imidazole-Based p53-MDM2/MDMX Antagonists with Aliphatic Linkers for Conjugation with Biological Carriers” (J Med Chem, 2017).
Activity calls are given as the source filed them. No cut-off for these calls is given here.

Tests used:
[1] = molecular target: E3 ubiquitin-protein ligase Mdm2 (Homo sapiens) (UniProt Q00987); assay: Inhibition of p53-MDM2 interaction in human U2OS cells assessed as p53 activation by measuring increase in MDM2 expression at 1 uM after 7 hrs by Western blot analysis; assay type: cell-based
Sequence of E3 ubiquitin-protein ligase Mdm2 (Homo sapiens) (Q00987 whole entry, looked up): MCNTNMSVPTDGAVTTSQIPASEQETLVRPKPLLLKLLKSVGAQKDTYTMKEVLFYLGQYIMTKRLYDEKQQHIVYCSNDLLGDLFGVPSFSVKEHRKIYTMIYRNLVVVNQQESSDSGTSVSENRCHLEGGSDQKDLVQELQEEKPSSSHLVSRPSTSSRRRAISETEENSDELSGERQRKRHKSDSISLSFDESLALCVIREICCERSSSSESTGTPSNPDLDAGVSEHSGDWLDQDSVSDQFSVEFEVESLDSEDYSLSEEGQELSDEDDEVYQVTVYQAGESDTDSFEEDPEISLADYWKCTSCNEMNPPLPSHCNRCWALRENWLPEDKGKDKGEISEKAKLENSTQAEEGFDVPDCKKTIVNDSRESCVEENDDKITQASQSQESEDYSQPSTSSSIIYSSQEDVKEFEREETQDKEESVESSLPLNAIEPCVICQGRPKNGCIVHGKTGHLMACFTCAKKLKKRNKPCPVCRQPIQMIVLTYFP

[2] = molecular target: E3 ubiquitin-protein ligase Mdm2 (Homo sapiens) (UniProt Q00987); assay: Inhibition of p53-MDM2 interaction in human HCT116 cells assessed as p53 activation by measuring increase in p21 expression at 1 uM after 24 hrs by Western blot analysis; assay type: cell-based
U2OS [3] = assay: Cell cycle arrest in wild type p53 expressing human U2OS cells assessed as increase in accumulation at G1 phase at 1 uM after 24 hrs by propidium iodide-based FACS analysis; assay type: functional
[4] = molecular target: E3 ubiquitin-protein ligase Mdm2 (Homo sapiens) (UniProt Q00987); assay: Inhibition of p53-MDM2 interaction in human U2OS cells assessed as p53 accumulation at 1 uM after 7 hrs by Western blot analysis; assay type: cell-based
[5] = molecular target: E3 ubiquitin-protein ligase Mdm2 (Homo sapiens) (UniProt Q00987); assay: Inhibition of p53-MDM2 interaction in human U2OS cells assessed as p53 activation by measuring p21 accumulation at 1 uM after 7 hrs by Western blot analysis; assay type: cell-based
[6] = molecular target: E3 ubiquitin-protein ligase Mdm2 (Homo sapiens) (UniProt Q00987); assay: Inhibition of p53-MDM2 interaction in human U2OS cells assessed as p53 activation by measuring increase in p21 expression at 1 uM after 24 hrs by Western blot analysis; assay type: cell-based
[7] = molecular target: E3 ubiquitin-protein ligase Mdm2 (Homo sapiens) (UniProt Q00987); assay: Inhibition of p53-MDM2 interaction in human HCT116 cells assessed as p53 activation by measuring increase in MDM2 expression at 1 uM after 7 hrs by Western blot analysis; assay type: cell-based
U2OS [8] = assay: Cell cycle arrest in wild type p53 expressing human U2OS cells assessed as decrease in accumulation at S phase at 1 uM after 24 hrs by propidium iodide-based FACS analysis; assay type: functional
U2OS [9] = assay: Cell cycle arrest in wild type p53 expressing human U2OS cells assessed as increase in accumulation at G1 phase at 10 uM after 24 hrs by propidium iodide-based FACS analysis; assay type: functional
U2OS [10] = assay: Cell cycle arrest in wild type p53 expressing human U2OS cells assessed as decrease in accumulation at S phase at 10 uM after 24 hrs by propidium iodide-based FACS analysis; assay type: functional
U2OS [11] = assay: cells; conditions: Homo sapiens, 24 h
Description: Cytotoxicity against wild type p53 expressing human U2OS cells assessed as cell growth inhibition after 24 hrs by MTT assay

SAOS-2 = assay: cells; conditions: Homo sapiens, SAOS-2, 24 h
Description: Cytotoxicity against p53 deficient human Saos2 cells assessed as cell growth inhibition after 24 hrs by MTT assay

U2OS [12] = assay: Cell cycle arrest in wild type p53 expressing human U2OS cells assessed as decrease in accumulation at S phase at 5 uM after 24 hrs by propidium iodide-based FACS analysis; assay type: functional
U2OS [13] = assay: Cell cycle arrest in wild type p53 expressing human U2OS cells assessed as increase in accumulation at G1 phase at 5 uM after 24 hrs by propidium iodide-based FACS analysis; assay type: functional
[14] = Selectivity ratio of IC50 for human Saos2 cells to IC50 for human U2OS cells

SMILES: COc1cc(C(=O)O)ccc1NC(=O)[C@@H]1N[C@@H](CC(C)(C)C)[C@](C#N)(c2ccc(Cl)cc2F)[C@H]1c1cccc(Cl)c1F
- inhibition [1]: Active
- inhibition [2]: Active
- Activity (U2OS [3]): Active
- inhibition [4]: Active
- inhibition [5]: Active
- inhibition [6]: Active
- inhibition [7]: Active
- Activity (U2OS [8]): Active

SMILES: O=C(O)CCC(=O)OCCCCCCOC(=O)c1[nH]c2cc(Cl)ccc2c1-c1c(-c2ccc(F)cc2)ncn1Cc1ccc(Cl)cc1
- Activity (U2OS [9]): Active
- Activity (U2OS [10]): Active

SMILES: O=C(NCCN1CCOCC1)c1[nH]c2cc(Cl)ccc2c1-c1c(-c2ccc(F)cc2)ncn1Cc1ccc(Cl)cc1
- IC50 (U2OS [11]): 3.67 µM
- Activity (U2OS [9]): Active
- IC50 (SAOS-2): 7.15 µM
- Activity (U2OS [12]): Active
- Activity (U2OS [13]): Active
- Activity (U2OS [10]): Active

SMILES: O=C(O)CCC(=O)NCCCCCCOC(=O)c1[nH]c2cc(Cl)ccc2c1-c1c(-c2ccc(F)cc2)ncn1Cc1ccc(Cl)cc1
- Activity (U2OS [12]): Active
- Activity (U2OS [13]): Active

SMILES: COc1ccc(C2=N[C@H](c3ccc(Cl)cc3)[C@H](c3ccc(Cl)cc3)N2C(=O)N2CCNC(=O)C2)c(OC(C)C)c1
- IC50 (U2OS [11]): 2.66 µM
- Ratio IC50 [14]: 7.59
- IC50 (SAOS-2): 20.2 µM

SMILES: O=C(O)c1[nH]c2cc(Cl)ccc2c1-c1c(-c2ccc(F)cc2)ncn1Cc1ccc(Cl)cc1
- IC50 (U2OS [11]): 17.4 µM
- Activity (U2OS [9]): Active
- IC50 (SAOS-2): 55.8 µM
- Activity (U2OS [10]): Active

SMILES: O=C(OCCN1CCOCC1)c1[nH]c2cc(Cl)ccc2c1-c1c(-c2ccc(F)cc2)ncn1Cc1ccc(Cl)cc1
- IC50 (U2OS [11]): 7.27 µM
- IC50 (SAOS-2): 11.7 µM
- Activity (U2OS [12]): Active
- Activity (U2OS [13]): Active
